One compound from US6492520B1, “Substituted pyrido-or pyrimido-containing 6,6- or 6,7-bicyclic derivatives” (Pfizer Inc, priority 1996, dated 2002) can be followed below.

Structures are written as SMILES.

For `CCC(CC)N1CCNc2c1cc(C)nc2Oc1c(C)cc(C)cc1C` [Example 4, 1-(1-Ethyl-propyl)-7-methyl-5-(2,4,6-trimethyl-phenoxy)-1,2,3,4-tetrahydro-pyrido[3,4-b]pyrazine], the melting point (usually the temperature of the solid-liquid transition) fell in the range of 138 to 140 °C.
